In one series the target is T1, 5-HT1B (Homo sapiens, UniProt P28222).
T1 construct: expressed in transfected cells
In words: cAMP, 5-HT1B. The series is classed as cell-based. On the procedure:
In vitro pharmacology studies were performed to evaluate the effects of compound 2-1 on functional activity of several 5-HT receptors using recombinant target overexpression cell culture systems. The effect of compound 2-1 on G protein-dependent signaling was investigated at 5-HT2A, 5-HT2B, and 5-HT2C receptors with calcium mobilization and IPOne assays; and at 5-HT1A, 5-HT1B, 5-HT1F, 5-HT5A, and 5-HT7D receptors with a cAMP assay. G protein-independent signaling was investigated at the 5-HT2A receptor with a β-Arrestin assay.
In vitro pharmacology studies were performed to evaluate the effects of compound 2-2 on functional activity at several 5-HT receptors using recombinant target overexpression cell culture systems. The effect of compound 2-2 on G protein-dependent signaling was investigated at 5-HT2A, 5-HT2B, and 5-HT2C receptors with calcium mobilization and IPOne assays; and at 5-HT1A, 5-HT1B, 5-HT1F, 5-HT5A, and 5-HT7D receptors with a cAMP assay. G protein-independent signaling was investigated at the 5-HT2A receptor with a β-arrestin assay. […] In Table 4, 5-HT receptor selectivity was calculated using ΔΔlog(Emax/EC50). Assay reference α-Me-5-HT or 5-HT was used for normalization at each receptor (5-HT2A/5-HT2B selectivity=1; 5-HT2A/5-HT2C selectivity=1). ND in Table 4 indicates, not determined, plateau was not reached within the concentration range tested to determine Emax.

A further series deals with 5-HT2A (rat) (Rattus norvegicus, UniProt P14842). In words: IPOne, rat 5-HT2A. The format is cell-based. To be noted: for Emax / 5-HT2A/5-HT2B Selectivity (rat): IPOne; for Emax: rat 5-HT2A, read-out: Emax (% α-Me-5-HT); for 5-HT2A/5-HT2B Selectivity (rat): rat receptors. An excerpt: Overall, in vitro activity at rodent 5-HT2A and 5-HT2B receptors is consistent with the human receptor results, with compound 2-1 acting as a potent and selective 5-HT2A agonist.
Overall, in vitro activity at rodent 5-HT2A and […] receptors is consistent with the human receptor results, with compound 2-2 acting as a potent and selective 5-HT2A agonist. In Table 5, ND indicates not determined.

Another series concerns Male Sprague-Dawley rats. The series is described as follows: 5-HT2A/2C/1A-mediated behaviors, locomotor activity and body temperature in rats. The series is classed as in vivo, rat. On the procedure: Forty (40) male Sprague-Dawley rats were used as test subjects in this study. Animals were dosed with vehicle (IP), one of 3 doses of compound 2-2 (3 mg/kg, 10 mg/kg, 30 mg/kg IP) or psilocybin (1 mg/kg SC) and, following the appropriate pre-treatment time, were placed in locomotor activity boxes and continuously monitored for a 1 hr period with data collected into 10-minute time bins. Animals were visually assed for overt behavioral signs, including biomarkers for 5-HT2A receptor target engagement (i.e. wet dog shakes, back muscle contractions and stereotypic behaviors), 5-HT2C receptor activation (yawning, penile grooming), and 5-HT1A behaviors (forepaw treading, hindlimb abduction). Additional behavioral and somatic signs characteristic of 5-HT syndrome (i.e. tremor, salivation, flat body posture) also were measured. Core body temperature change was determined at 0 hr (pre-dose), 1 hr, and 2 hr. Simultaneously, the spontaneous locomotor activity of the rats was measured using automated Med Associates activity test chambers. Activity data collected included total distance travelled, rearing counts, and ambulatory episodes. LMA was measured for a total of 2 hours (i.e. the first hour to include visual assessments of behavioral signs, and the second hour the animals will not be assessed for behavioral signs) with data collected into 10 minute time bins. The tracking arena measured 17″ W×17″ L×12″ H, sensor bars were secured 1″ above the floor to track distance travelled, and a second set of sensor bars were placed ˜5″ above the floor to measure vertical movement and rearing activity. The parameters set on the tracking software were as follows: resolution −50 ms, box size −4 beams, resting delay −500 ms, and ambulatory trigger −3.
Table 14 outlines receptor activity and related behavioral and/or physiological measures.

For series [1], the system named is Male WKY rats. In words: Low-dose sleep, locomotor, body temperature and qEEG study in WKY rats. The format is in vivo, rat. To be noted: 1, 3 and 10 mg/kg IP. As to the method:
The aim of the current study was to identify a minimal effective dose of compound by testing a series of lower doses (1, 3 and 10 mg/kg). The study was carried out similarly to Examples 7 and 9 with differences noted below. Male WKY rats (n=8, 255-296 g at the start of dosing) were housed in groups of 2-3 animals per cage with standard housing conditions.

For another series, the target named is 5-HT2A (Homo sapiens, UniProt P28223). The series is described as follows: 5-HT2A receptor binding in human post-mortem frontal cortical tissue.
Series [2] concerns Male WKY rats. In words: Confirmatory 30 mg/kg sleep, locomotor, body temperature and qEEG study in WKY rats. The format is in vivo, rat. Conditions: 30 mg/kg IP. As to the method:
The aim of the current study was to confirm the effects of compound 2-2 (30 mg/kg) on sleep-wake behavior and EEG brain oscillatory power in an independent cohort of male Wistar Kyoto rats. The study was carried out similarly to Examples 7 and 9 with differences noted below. Male WKY rats (n=8, 323-352 g at the start of dosing) were housed in groups of 2-3 animals per cage with standard housing conditions.

The target in series [3] is T2, 5-HT2A receptors in the mouse frontal cortex (Mus musculus, UniProt P35363).
T2 construct: Left frontal cortices from each animal were homogenized individually; from tissue
The series is described as follows: Ex vivo 5-HT2A receptor occupancy ([3H]cimbi-36) in mouse frontal cortex.

The mark [4] stands for this setting: 5-HT1A agonism, 3, 10, 30 mg/kg IP.
Setting [5] is: 5-HT2C agonism, 3, 10, 30 mg/kg IP.
[6] abbreviates: excess 5-HT agonism (5-HT syndrome), 3, 10, 30 mg/kg IP.

Molecules are shown by their SMILES. “Also recorded” adds a separate entry of the source.

T2 sequence (P35363 whole entry): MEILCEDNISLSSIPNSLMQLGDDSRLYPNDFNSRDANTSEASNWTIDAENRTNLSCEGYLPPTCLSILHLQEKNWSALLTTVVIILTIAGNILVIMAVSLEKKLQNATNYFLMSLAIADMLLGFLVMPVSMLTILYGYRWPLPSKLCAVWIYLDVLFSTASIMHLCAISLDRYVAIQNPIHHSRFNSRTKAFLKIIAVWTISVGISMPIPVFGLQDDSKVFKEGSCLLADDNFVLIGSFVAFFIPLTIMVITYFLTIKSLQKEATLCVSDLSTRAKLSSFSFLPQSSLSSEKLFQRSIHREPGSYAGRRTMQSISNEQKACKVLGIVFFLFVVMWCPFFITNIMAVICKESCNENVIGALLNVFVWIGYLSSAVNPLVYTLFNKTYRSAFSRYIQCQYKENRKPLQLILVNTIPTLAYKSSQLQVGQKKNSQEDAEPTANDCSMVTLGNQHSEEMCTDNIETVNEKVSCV
Sequence of 5-HT2A (rat) (P14842 whole entry): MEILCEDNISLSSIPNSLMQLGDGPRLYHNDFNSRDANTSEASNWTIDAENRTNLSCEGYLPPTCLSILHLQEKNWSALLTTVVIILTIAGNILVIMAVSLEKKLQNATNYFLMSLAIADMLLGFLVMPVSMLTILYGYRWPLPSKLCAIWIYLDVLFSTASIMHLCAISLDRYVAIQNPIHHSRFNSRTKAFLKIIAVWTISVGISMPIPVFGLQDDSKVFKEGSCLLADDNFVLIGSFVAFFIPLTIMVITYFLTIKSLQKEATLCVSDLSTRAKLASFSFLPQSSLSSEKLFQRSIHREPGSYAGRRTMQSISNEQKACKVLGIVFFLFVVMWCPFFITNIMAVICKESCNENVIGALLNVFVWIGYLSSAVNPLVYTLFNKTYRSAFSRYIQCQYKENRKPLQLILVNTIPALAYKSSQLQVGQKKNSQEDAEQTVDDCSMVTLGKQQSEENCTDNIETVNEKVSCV
T1 sequence (P28222 whole entry): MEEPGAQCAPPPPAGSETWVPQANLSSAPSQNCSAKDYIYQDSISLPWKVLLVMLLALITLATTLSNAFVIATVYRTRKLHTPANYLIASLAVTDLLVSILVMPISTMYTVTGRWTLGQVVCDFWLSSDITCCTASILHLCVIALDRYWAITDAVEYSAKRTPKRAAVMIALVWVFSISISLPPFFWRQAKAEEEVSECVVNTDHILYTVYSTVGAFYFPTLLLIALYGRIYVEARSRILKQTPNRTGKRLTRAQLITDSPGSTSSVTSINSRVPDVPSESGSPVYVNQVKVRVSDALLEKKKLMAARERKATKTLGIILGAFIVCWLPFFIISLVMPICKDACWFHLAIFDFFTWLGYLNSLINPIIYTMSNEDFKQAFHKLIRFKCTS
Sequence of 5-HT2A (P28223 whole entry): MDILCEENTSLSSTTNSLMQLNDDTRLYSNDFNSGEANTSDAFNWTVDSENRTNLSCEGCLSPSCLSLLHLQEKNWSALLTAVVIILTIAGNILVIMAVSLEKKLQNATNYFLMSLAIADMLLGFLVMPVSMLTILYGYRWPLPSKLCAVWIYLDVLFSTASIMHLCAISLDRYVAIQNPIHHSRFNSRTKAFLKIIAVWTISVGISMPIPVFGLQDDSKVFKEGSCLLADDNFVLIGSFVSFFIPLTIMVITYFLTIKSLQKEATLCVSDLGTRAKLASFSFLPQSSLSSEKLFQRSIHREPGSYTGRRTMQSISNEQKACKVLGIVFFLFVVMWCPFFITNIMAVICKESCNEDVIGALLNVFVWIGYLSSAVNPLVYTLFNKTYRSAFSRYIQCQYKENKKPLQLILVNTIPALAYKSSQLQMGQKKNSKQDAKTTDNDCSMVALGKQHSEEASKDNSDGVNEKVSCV

On 5-HT1B, `COc1ccc(OC)c(CCNCc2cc(C)cc(Cl)c2)c1` [Compound 2-1, N-(3-chloro-5-methylbenzyl)-2-(2,5-dimethoxyphenyl)ethan-1-amine] yielded an EC50 greater than 100000 nM. Further, at 5-HT2A (rat), the EC50 amounted to 3.06 nM, the Emax came to 99.5% and the “5-HT2A/5-HT2B Selectivity (rat)” value is greater than 100000. Also, on 5-HT2A (rat) (rat 5-HT2A receptor), the “agonist activity (in words)” value is reported as “full agonist activity”.

For `COc1ccc(OC)c(CCNCc2cc(C)cc(F)c2)c1` [Compound 2-2, 2-(2,5-dimethoxyphenyl)-N-(3-fluoro-5-methylbenzyl)ethan-1-amine], in the series with Male Sprague-Dawley rats (30 mg/kg IP), the “distance travelled during the first 20 minutes of the 2 hour test” value is listed as “decreased”, the total ambulatory episodes result is listed as “decreased” and the total rearing counts entry is recorded as “decreased”. Moreover, the total distance travelled result with Male Sprague-Dawley rats (3, 10, 30 mg/kg IP, 2 hour test) is reported as “did not affect”. Also, the Flat body posture result in the series on Male Sprague-Dawley rats (5-HT1A agonism / excess 5-HT agonism, 30 mg/kg IP (highest dose tested), 30 mg/kg) is “induced flat body posture; also recorded: Significant Increase”. In the series on Male Sprague-Dawley rats (setting [4]), the “Forepaw treading (FPT)” value was “No effect” and the “Hindlimb abduction (HLA)” value is recorded as “No effect”. In the series on Male Sprague-Dawley rats (setting [5]), the “Penile grooming (PG)” value is recorded as “No effect” and the Yawning result was “No effect”. Further, in the series on Male Sprague-Dawley rats (setting [6]), the Salivation result is listed as “No effect” and the Tremor entry is given as “No effect”. Further, the Locomotor activity entry with Male Sprague-Dawley rats (mixed/non-selective, 30 mg/kg IP) is reported as “Significant decrease”. Further, the EC50 on 5-HT1B is greater than 100000 nM. Besides, at 5-HT2A (rat), the half-maximal effective concentration (EC50) is 7.2 nM, the maximal effect (Emax) is 105% and the “5-HT2A/5-HT2B Selectivity (rat)” value is greater than 100000. Besides, in the series with Male WKY rats [1], the body temperature entry is given as “did not affect” and the locomotion result is on record as “did not affect”. On 5-HT2A, the IC50 was determined as 69 nM and the Ki is 30.8 nM. Also, in the series with Male WKY rats [2], the NREM sleep latency result is on record as “no significant effect”, the body temperature entry is given as “transiently reduced” and the locomotion entry is on record as “did not affect”. Also, in series [3], the concentration giving a half-maximal response (EC50) was 1930 nM. In addition, the “ex vivo occupancy of 5-HT2A receptors (RO)” value in series [3] (across 1, 3, 10 mg/kg IP) is 21-60%. Also, the “brain concentration at 50% 5-HT2A RO” value in series [3] (in brain) was 1608 ng/g. Moreover, in series [3] (mouse, 1 mg/kg IP, 15 minutes post dosing, read-out: % Receptor Occupancy (RO)), the receptor occupancy at 1 mg/kg came out at 21%. In addition, the remaining activity at 1 mg/kg in series [3] (mouse, 1 mg/kg IP, 15 minutes post dosing, read-out: % of Control Binding) was 79%. Further, the receptor occupancy at 3 mg/kg in series [3] (mouse, 3 mg/kg IP, 15 minutes post dosing, read-out: % Receptor Occupancy (RO)) was 37%. Moreover, the remaining activity at 3 mg/kg in series [3] (mouse, 3 mg/kg IP, 15 minutes post dosing, read-out: % of Control Binding) is 63%. The receptor occupancy at 10 mg/kg in series [3] (mouse, 10 mg/kg IP, 15 minutes post dosing, read-out: % Receptor Occupancy (RO)) was 60%. For the same compound, in series [3] (mouse, 10 mg/kg IP, 15 minutes post dosing, read-out: % of Control Binding), the remaining activity at 10 mg/kg is 40%. Further, the ED50 in series [3] (mouse, IP, non-linear regression, read-out: dose at 50% 5-HT2A RO) was determined as 6.14 mg/kg.

A word on the EC50: it is the concentration needed to bring the measured effect to its halfway point. A higher EC50 goes with a less potent agent. Broadly, the Emax is the greatest response seen or fitted, relative to the assay's reference. Broadly, the IC50 is the point on the concentration scale where inhibition reaches its midpoint. One may read the Ki as the equilibrium dissociation constant of an inhibitor or competing ligand from its target. Lower therefore signals tighter binding.

Values taken from patent US12343319B2, “Compositions and methods for treatment of diseases and disorders” (Atai Therapeutics Inc., priority 2023, dated 2025).
